Holding throughout (type): binding
Assay [1] concerns the target T1, JAK1 (Homo sapiens, UniProt P23458).
T1 construct: screened for activity against several kinases in Jurkat cells; endogenous in cells; host or cells: Jurkat cell lysate
The assay can be described thus: Probe-based (AX9989) kinase profiling in Jurkat lysate: JAK1. The following applies: read-out: JAK1 Inhibition % at indicated screening concentration; for inhibition at 1 µM: screening concentration 1 μM; for inhibition at 10 µM: screening concentration 10 μM. Summed up:
(§1)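 Gel-filtered Jurkat lysate (HEPES pH 7.5, 20 mM MnCl2, 5 mg/ml) was pre-incubated 15 min with compound at room temperature, then labelled with 5 μM acyl-phosphate ATP probe AX9989. Tryptic probe-labelled active-site peptides were streptavidin-captured and quantified by LC/MS. Percent inhibition reflected the decrease in labelled-peptide intensity versus no compound.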

Assay [2] addresses T2, ERK5 (Homo sapiens, UniProt Q13164).
T2 construct: screened for activity against several kinases in Jurkat cells; endogenous in cells; host or cells: Jurkat cell lysate
The assay can be described thus: Probe-based (AX9989 acyl phosphate ATP probe) kinase profiling in Jurkat lysate: ERK5. The following applies: for IC50: calculated from percent inhibition and screening concentration, Jurkat lysate, AX9989 probe; for inhibition at 1 µM: screening concentration 1 μM; for inhibition at 1 µM / inhibition at 10 µM: read-out: ERK5 Inhibition % at indicated screening concentration; for inhibition at 10 µM: screening concentration 10 μM. Summed up:
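Gel-filtered Jurkat lysate (5 mg/ml, 20 mM MnCl2) preincubated 15 min at room temperature with compound, then labelled with 5 μM AX9989 acyl phosphate ATP probe. Probe-labelled ERK5 active-site peptides quantified by LC/MS after trypsin digestion and streptavidin capture; IC50 calculated from percent inhibition at the screening concentration.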

Assay [3] addresses T3, BRD4 bromodomain domain I [BRD4(1)] (Homo sapiens, UniProt O60885).
T3 construct: BRD4 bromodomain domain I [BRD4(1)]; purchased Cayman Chemicals
As to the kind of experiment: BRD4 bromodomain domain 1 inhibition assay (TR-FRET). The following applies: for inhibition at 10 µM: screening concentration 10 μM. A digest of the protocol:
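0.5% DMSO, in triplicate, using Cayman BRD4(1) TR-FRET protocol with slight modification. 670/620 nm ratio normalized to 10 μM JQ1, with DMSO control set as 0% inhibition.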

Assay [4] has as its system AurB or AurC. As to the kind of experiment: Probe-based (AX9989) kinase profiling in Jurkat lysate: AurB or AurC. A digest of the protocol:
as §1

Assay [5] concerns the target T4, TAO2 (Homo sapiens, UniProt Q9UL54).
T4 construct: screened for activity against several kinases in Jurkat cells; endogenous in cells; host or cells: Jurkat cell lysate
T4 sequence (Q9UL54 1-1235): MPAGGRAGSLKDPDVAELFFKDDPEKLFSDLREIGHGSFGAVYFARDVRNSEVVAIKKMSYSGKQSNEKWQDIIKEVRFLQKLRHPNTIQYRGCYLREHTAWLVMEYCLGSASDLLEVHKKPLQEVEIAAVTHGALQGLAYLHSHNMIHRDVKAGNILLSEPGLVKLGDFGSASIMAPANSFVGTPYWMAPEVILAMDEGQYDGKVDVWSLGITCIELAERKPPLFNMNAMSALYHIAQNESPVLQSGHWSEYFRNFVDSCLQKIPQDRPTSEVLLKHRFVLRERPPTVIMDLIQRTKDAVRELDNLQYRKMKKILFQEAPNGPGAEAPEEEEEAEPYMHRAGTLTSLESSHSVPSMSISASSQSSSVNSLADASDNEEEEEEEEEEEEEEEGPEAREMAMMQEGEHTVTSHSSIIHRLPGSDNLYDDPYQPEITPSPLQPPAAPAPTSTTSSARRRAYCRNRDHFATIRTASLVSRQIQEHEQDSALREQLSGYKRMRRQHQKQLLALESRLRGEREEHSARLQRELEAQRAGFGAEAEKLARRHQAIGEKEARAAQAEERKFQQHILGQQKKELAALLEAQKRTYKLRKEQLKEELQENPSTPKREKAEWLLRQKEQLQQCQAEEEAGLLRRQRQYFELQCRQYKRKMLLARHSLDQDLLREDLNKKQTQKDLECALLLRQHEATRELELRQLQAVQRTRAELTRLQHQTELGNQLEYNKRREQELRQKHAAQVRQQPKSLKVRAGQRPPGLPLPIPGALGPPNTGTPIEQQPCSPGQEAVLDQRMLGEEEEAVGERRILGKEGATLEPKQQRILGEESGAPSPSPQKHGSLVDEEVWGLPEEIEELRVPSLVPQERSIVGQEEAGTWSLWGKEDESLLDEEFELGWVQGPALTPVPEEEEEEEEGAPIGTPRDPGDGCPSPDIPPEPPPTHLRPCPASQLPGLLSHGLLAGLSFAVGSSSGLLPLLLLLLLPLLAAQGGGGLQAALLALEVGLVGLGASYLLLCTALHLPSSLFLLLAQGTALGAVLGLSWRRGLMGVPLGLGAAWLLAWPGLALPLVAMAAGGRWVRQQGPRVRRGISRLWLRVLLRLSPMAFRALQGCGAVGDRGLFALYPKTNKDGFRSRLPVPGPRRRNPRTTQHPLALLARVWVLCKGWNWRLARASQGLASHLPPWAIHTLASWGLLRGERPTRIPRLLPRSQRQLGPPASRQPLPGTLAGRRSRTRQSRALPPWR
The assay can be described thus: Probe-based (AX9989) kinase profiling in Jurkat lysate: TAO2. As to conditions: read-out: TAO2 Inhibition % at indicated screening concentration; for inhibition at 1 µM: screening concentration 1 μM; for inhibition at 10 µM: screening concentration 10 μM. Summed up: as §1

The target of assay [6] is T5, ACK (Homo sapiens, UniProt Q07912).
T5 construct: screened for activity against several kinases in Jurkat cells; endogenous in cells; host or cells: Jurkat cell lysate
As to the kind of experiment: Probe-based (AX9989) kinase profiling in Jurkat lysate: ACK. As to conditions: read-out: ACK Inhibition % at indicated screening concentration; for inhibition at 1 µM: screening concentration 1 μM; for inhibition at 10 µM: screening concentration 10 μM. A digest of the protocol:
as §1

The structures appear in SMILES notation. Some results are limits rather than exact numbers.

T5 sequence (Q07912 whole entry): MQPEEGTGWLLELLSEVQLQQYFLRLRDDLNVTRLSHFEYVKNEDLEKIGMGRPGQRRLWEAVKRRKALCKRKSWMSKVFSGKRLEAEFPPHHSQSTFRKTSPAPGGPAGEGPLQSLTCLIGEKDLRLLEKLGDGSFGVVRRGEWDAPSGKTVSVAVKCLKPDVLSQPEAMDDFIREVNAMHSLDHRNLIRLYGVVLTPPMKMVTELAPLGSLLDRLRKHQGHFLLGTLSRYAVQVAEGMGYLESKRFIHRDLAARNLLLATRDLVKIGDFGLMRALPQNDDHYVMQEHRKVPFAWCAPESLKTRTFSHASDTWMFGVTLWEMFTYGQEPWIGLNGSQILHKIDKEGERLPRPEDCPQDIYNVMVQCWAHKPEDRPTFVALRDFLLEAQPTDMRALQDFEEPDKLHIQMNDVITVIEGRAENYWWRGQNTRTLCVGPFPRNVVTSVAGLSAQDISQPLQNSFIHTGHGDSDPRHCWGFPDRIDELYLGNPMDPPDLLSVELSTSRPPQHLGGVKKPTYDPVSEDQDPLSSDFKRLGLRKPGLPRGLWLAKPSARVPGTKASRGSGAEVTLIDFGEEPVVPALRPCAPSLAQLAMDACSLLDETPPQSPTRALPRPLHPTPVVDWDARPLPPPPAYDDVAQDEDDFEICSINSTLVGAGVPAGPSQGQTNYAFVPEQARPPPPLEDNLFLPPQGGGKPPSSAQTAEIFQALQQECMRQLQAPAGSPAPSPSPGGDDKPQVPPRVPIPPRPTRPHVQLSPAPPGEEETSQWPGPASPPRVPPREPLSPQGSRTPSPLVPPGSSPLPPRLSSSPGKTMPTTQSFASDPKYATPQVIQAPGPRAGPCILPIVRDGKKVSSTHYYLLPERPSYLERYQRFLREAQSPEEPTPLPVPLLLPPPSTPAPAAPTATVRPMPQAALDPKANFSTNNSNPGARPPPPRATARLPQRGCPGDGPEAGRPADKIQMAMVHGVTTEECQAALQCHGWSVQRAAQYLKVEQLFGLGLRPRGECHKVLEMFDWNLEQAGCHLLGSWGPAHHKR
T1 sequence (P23458 whole entry): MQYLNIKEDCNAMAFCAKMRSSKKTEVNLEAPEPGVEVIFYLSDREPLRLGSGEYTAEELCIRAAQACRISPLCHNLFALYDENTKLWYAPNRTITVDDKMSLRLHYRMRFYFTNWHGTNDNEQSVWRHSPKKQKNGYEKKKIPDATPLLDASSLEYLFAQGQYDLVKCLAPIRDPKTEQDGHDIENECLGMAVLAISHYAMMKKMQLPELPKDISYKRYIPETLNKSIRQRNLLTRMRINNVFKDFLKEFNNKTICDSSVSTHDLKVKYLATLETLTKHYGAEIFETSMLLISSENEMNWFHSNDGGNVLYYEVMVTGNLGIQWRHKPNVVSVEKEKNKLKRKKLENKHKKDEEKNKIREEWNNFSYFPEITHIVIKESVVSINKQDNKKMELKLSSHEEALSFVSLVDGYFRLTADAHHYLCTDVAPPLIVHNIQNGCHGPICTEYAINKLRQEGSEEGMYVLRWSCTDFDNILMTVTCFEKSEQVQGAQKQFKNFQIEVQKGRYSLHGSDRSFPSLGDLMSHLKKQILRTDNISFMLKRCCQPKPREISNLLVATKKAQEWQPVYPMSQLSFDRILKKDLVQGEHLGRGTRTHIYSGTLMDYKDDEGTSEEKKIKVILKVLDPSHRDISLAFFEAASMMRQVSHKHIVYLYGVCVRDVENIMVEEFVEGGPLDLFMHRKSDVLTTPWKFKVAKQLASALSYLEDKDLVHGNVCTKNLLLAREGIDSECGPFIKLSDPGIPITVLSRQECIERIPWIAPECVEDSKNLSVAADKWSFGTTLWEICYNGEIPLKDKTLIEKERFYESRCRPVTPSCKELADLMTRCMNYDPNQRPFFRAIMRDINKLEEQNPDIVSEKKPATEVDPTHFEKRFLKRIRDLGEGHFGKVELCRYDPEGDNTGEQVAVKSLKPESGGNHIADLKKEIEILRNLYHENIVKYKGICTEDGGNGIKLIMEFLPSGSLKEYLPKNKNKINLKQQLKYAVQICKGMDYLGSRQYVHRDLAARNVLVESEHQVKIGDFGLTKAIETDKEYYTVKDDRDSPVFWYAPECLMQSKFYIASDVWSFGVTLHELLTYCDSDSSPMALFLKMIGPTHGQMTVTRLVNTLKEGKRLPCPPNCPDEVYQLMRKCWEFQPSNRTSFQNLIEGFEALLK
T2 sequence (Q13164 whole entry): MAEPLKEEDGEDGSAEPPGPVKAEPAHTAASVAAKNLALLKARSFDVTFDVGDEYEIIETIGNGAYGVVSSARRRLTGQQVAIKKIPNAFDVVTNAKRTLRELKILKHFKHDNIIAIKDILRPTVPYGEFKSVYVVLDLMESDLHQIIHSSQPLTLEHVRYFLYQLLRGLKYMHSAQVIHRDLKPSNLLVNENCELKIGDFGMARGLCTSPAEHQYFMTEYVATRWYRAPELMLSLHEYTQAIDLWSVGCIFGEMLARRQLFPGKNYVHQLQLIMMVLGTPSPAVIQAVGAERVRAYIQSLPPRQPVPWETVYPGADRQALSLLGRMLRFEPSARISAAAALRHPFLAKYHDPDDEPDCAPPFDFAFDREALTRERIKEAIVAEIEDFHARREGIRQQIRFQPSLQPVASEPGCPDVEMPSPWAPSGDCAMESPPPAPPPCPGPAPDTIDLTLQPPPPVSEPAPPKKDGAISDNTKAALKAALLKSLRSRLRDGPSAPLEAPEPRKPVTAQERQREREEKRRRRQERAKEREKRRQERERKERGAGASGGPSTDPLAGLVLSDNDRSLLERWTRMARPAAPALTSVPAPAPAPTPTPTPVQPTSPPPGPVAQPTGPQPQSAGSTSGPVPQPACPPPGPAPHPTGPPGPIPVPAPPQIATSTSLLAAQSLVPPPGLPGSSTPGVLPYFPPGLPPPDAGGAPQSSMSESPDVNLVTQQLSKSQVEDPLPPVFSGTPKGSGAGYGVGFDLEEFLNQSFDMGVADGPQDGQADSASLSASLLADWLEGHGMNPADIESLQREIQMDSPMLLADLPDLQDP

Take `CC(C)Oc1cc(C(=O)N2CC[C@@H](NCCF)C2)ccc1Nc1cc2c(cn1)N(C)C(=O)c1ccccc1N2C` [Compound T50]: the inhibition at 1 µM is at most 35% in assay [1], 75 to 90% in assay [2], at most 35% in assay [5] and at most 35% in assay [6]. In assay [2], the IC50 is 101 to 500 nM. In addition, the inhibition at 10 µM in assay [3] is above 85%. The “AurB or AurC Inhibition % at indicated screening concentration” value (shortened to “AurB or AurC Inhibition %”) in assay [4] (screening concentration 1 μM) is given as “E (E is ≦35%)”.
As to `CCOc1cc(C(=O)N2CCN(c3cccnc3)CC2)ccc1Nc1cc2c(cn1)N(C)C(=O)c1occc1N2C` [Compound T56], the inhibition at 1 µM in assay [1] is at most 35%; in assay [2], above 90%; in assay [5], at most 35%; in assay [6] it was at most 35%. In assay [2], the IC50 is at most 50 nM. In assay [3], the inhibition at 10 µM lay in the range of 70 to 85%. The “AurB or AurC Inhibition %” value in assay [4] (screening concentration 1 μM) is “E (E is ≦35%)”.
Regarding `CCOc1cc(C(=O)N[C@H]2CC[C@H](O)CC2)ccc1Nc1cc2c(cn1)N(C)C(=O)c1ccccc1N2C` [Compound T62], the inhibition at 1 µM in assay [1] was at most 35%; in assay [2] it was 75 to 90%; in assay [5], at most 35%; in assay [6], at most 35%. For the same compound, the IC50 in assay [2] is 101 to 500 nM. For the same compound, the inhibition at 10 µM in assay [3] lay in the range of 70 to 85%. The “AurB or AurC Inhibition %” value in assay [4] (screening concentration 1 μM) is given as “E (E is ≦35%)”.
For `CCOc1cc(C(=O)N(C)[C@H]2CC[C@H](O)CC2)ccc1Nc1cc2c(cn1)N(C)C(=O)c1ccccc1N2C` [Compound T64], the inhibition at 1 µM in assay [1] was at most 35%; in assay [2], above 90%; in assay [5] it was at most 35%; in assay [6] it was at most 35%. Further, the IC50 in assay [2] was 50 to 100 nM. In assay [3], the inhibition at 10 µM was 70 to 85%. Also, the “AurB or AurC Inhibition %” value in assay [4] (screening concentration 1 μM) is “E (E is ≦35%)”.
For `CN1CCC(N2CCN(C(=O)c3ccc(Nc4cc5c(cn4)N(C)C(=O)c4ccccc4N5C)c(F)c3)CC2)CC1` [Compound T70], the inhibition at 1 µM in assay [1] is at most 35%; in assay [2], above 90%; in assay [5] it was at most 35%; in assay [6] it was at most 35%. In assay [2], the IC50 is at most 50 nM. Moreover, the inhibition at 10 µM in assay [3] was below 70%. For the same compound, the “AurB or AurC Inhibition %” value in assay [4] (screening concentration 1 μM) is “E (E is ≦35%)”.
`CN1CCC(N2CCN(C(=O)c3ccc(Nc4cc5c(cn4)N(C)C(=O)c4ccccc4N5C)c(OC(F)F)c3)CC2)CC1` [Compound T76]: the inhibition at 1 µM in assay [1] is at most 35%; in assay [2] it was above 90%; in assay [5], at most 35%; in assay [6], at most 35%. Besides, the IC50 in assay [2] was at most 50 nM. Also, the inhibition at 10 µM in assay [3] was 70 to 85%. Further, the “AurB or AurC Inhibition %” value in assay [4] (screening concentration 1 μM) is reported as “E (E is ≦35%)”.
For the compound `CN1C(=O)c2c(F)cccc2Oc2cc(N[C@H]3CC[C@H](O)CC3)ncc21` [Compound T92], the inhibition at 10 µM in assay [1] was at most 35%; in assay [2], above 90%; in assay [5], 50 to 75%; in assay [6], at most 35%. In addition, the IC50 in assay [2] is 101 to 500 nM; in assay [3], below 2000 nM. Also, the “AurB or AurC Inhibition %” value in assay [4] (screening concentration 10 μM) is given as “D (D is >35% to ≦50%)”.
For `COc1cccc2c1Oc1cc(N[C@H]3CC[C@H](O)CC3)ncc1N(C)C2=O` [Compound T95], the inhibition at 10 µM is at most 35% in assay [1], above 90% in assay [2], 50 to 75% in assay [5] and at most 35% in assay [6]. The IC50 in assay [2] was above 500 nM; in assay [3], 2000 to 5000 nM. In addition, the “AurB or AurC Inhibition %” value in assay [4] (screening concentration 10 μM) was “E (E is ≦35%)”.
With `CN1C(=O)c2c(F)ccc(F)c2Oc2cc(N[C@H]3CC[C@H](O)CC3)ncc21` [Compound T97], the inhibition at 10 µM was at most 35% in assay [1], above 90% in assay [2], 50 to 75% in assay [5] and at most 35% in assay [6]. Also, the IC50 in assay [2] is above 500 nM; in assay [3] it was 2000 to 5000 nM. Also, the “AurB or AurC Inhibition %” value in assay [4] (screening concentration 10 μM) is reported as “E (E is ≦35%)”.
Consider `CCOc1cc(C(=O)N2CCN(C3CCN(C)CC3)CC2)ccc1Nc1cc2c(cn1)N(C)C(=O)c1ccccc1O2` [Compound T98], for which the inhibition at 10 µM is at most 35% in assay [1], above 90% in assay [2], at most 35% in assay [5] and at most 35% in assay [6]. Moreover, the IC50 is 101 to 500 nM in assay [2] and 2000 to 5000 nM in assay [3]. For the same compound, the “AurB or AurC Inhibition %” value in assay [4] (screening concentration 10 μM) was “E (E is ≦35%)”.
On to `CCOc1cc(C(=O)N2CCN(C3CCN(C)CC3)CC2)ccc1Nc1cc2c(cn1)N(C)C(=O)c1c(F)cccc1O2` [Compound T102], for which the inhibition at 10 µM in assay [1] was at most 35%; in assay [2], above 90%; in assay [5] it was at most 35%; in assay [6] it was at most 35%. Also, the IC50 in assay [2] was 101 to 500 nM; in assay [3], below 2000 nM. Moreover, in assay [4] (screening concentration 10 μM), the “AurB or AurC Inhibition %” value is “E (E is ≦35%)”.
Regarding `C[C@@H]1C[C@H](Nc2cc3c(cn2)N(C)C(=O)c2ccccc2N3C)CC[C@H]1O` [Compound T115], the inhibition at 10 µM in assay [1] is at most 35%; in assay [2], above 90%; in assay [5], at most 35%; in assay [6] it was at most 35%. Also, the IC50 in assay [2] was 101 to 500 nM; in assay [3], 2000 to 5000 nM. Also, in assay [4] (screening concentration 10 μM), the “AurB or AurC Inhibition %” value was “E (E is ≦35%)”.

The values above are taken from patent US20170008888A1 (KYORIN PHARMACEUTICAL CO., LTD., priority 2014, published 2017).
